Assay results as given in patent EP4725956A1, “MODIFIED POLYPEPTIDE AND USE THEREOF IN FIELD OF ANALGESIA” (Nanjing Anji Biotechnology Co., Ltd., priority 2023, dated 2024).
Positions of bridges follow the written chain, without caps; N, C: chain ends. Non-standard residues stand in square brackets, D forms with d. Residues, ends and D or L forms follow the SMILES beside them. Bip = N[C@@H](Cc1ccc(-c2ccccc2)cc1)C(=O)O; Hyp = O=C(O)[C@@H]1C[C@@H](O)CN1; Nle = CCCC[C@H](N)C(=O)O; Orn = NCCC[C@H](N)C(=O)O; Aib = CC(C)(N)C(=O)O

Test system: rat CCI model
Test: Rat CCI (chronic constriction injury) model (Example 9)
Format: in vivo
Source text: Neuropathic pain has many types, and animal models can simulate clinical neuropathic pain. Common SD rat sciatic nerve neuropathic pain models include CCI (Chronic Constriction Injury), SNI (Spared Nerve Injury), SNL (Spinal Nerve Ligation), and CCD (using stainless steel wire through the intervertebral foramen to fix and compress the dorsal root ganglion). Among them, the CCI model is widely used to study neuropathic pain, providing a basis for further research on mechanisms and strategies for nerve injury repair (Wen Xiaojun, Medical Information, Jan. 2018, Vol. 31, No.1). In this example, the CCI model was employed.
Except for the control group, the remaining SD rats were anesthetized via intraperitoneal injection of 10% chloral hydrate saline solution at a dose of 0.3 mL per 100 g body weight, and surgical modeling was performed. The right hind limb skin was carefully incised, muscles were separated, and the sciatic nerve was ligated three times using 4-0 surgical silk, spaced 1 mm apart. Muscles and skin were sutured, and antibiotics were applied to the wound to prevent infection. […] Approximately 10 days post-surgery, plantar pain thresholds were measured three times for each rat, and the average value was calculated. Rats were randomly assigned to groups based on pain thresholds. Drug administration was performed according to Table 8, and plantar pain thresholds were measured at 2 h, 4 h, 6 h, and 8 h after administration.

CCCC[C@H](NC(=O)[C@@H](NC(=O)[C@H]1CSSC[C@H](NC(=O)[C@H](CO)NC(=O)CN)C(=O)N[C@@H](CO)C(=O)N[C@H]([C@H](C)O)C(=O)N2C[C@H](O)C[C@H]2C(=O)N2C[C@H](O)C[C@H]2C(=O)NC(C)(C)C(=O)N1)C(C)C)C(=O)N[C@@H](Cc1ccc(-c2ccccc2)cc1)C(=O)N[C@@H](CCCN)C(N)=O [AJ003-36, GSCS-(D-Thr)-Hyp-Hyp-Aib-(D-Cys)-V-Nle-Bip-Orn-NH2 (3,9 disulfide bond)] (H-GSCS[dT][Hyp][Hyp][Aib][dC]V[Nle][Bip][Orn]-NH2; disulfide 3-9)
analgesic activity compared with the model group (mechanical pain threshold) (Day 1 of dosing, 6 h, 1 mg/kg s.c. (AJ003; AJ003-36 medium dose)): significant analgesic activity
analgesic activity compared with the model group (mechanical pain threshold) (Day 1 of dosing, 6 h, 2 mg/kg s.c. (high dose)): significant analgesic activity
analgesic activity compared with the model group (mechanical pain threshold) (Day 1 of dosing, 8 h, 0.5 mg/kg s.c. (low dose)): not significantly different
analgesic activity compared with the model group (mechanical pain threshold) (Day 1 of dosing, 8 h, 1 mg/kg s.c. (AJ003; AJ003-36 medium dose)): significant analgesic activity
analgesic activity compared with the model group (mechanical pain threshold) (Day 1 of dosing, 8 h, 2 mg/kg s.c. (high dose)): significant analgesic activity
analgesic activity compared with the model group (mechanical pain threshold) (Day 4 of dosing, 2 h and 4 h, 0.5 mg/kg s.c. (low dose)): significant analgesic activity
analgesic activity compared with the model group (mechanical pain threshold) (Day 4 of dosing, 2 h and 4 h, 1 mg/kg s.c. (AJ003; AJ003-36 medium dose)): significant analgesic activity
analgesic activity compared with the model group (mechanical pain threshold) (Day 4 of dosing, 2 h and 4 h, 2 mg/kg s.c. (high dose)): significant analgesic activity
analgesic activity compared with the model group (mechanical pain threshold) (Day 4 of dosing, 6 h and 8 h, 0.5 mg/kg s.c. (low dose)): no longer significant
analgesic activity compared with the model group (mechanical pain threshold) (Day 4 of dosing, 6 h and 8 h, 1 mg/kg s.c. (AJ003; AJ003-36 medium dose)): remained significant
analgesic activity compared with the model group (mechanical pain threshold) (Day 4 of dosing, 6 h and 8 h, 2 mg/kg s.c. (high dose)): remained significant
analgesic activity compared with the model group (mechanical pain threshold) (Day 7 of dosing, 2 h and 4 h, 0.5 mg/kg s.c. (low dose)): significant analgesic activity
analgesic activity compared with the model group (mechanical pain threshold) (Day 7 of dosing, 2 h and 4 h, 1 mg/kg s.c. (AJ003; AJ003-36 medium dose)): significant analgesic activity
analgesic activity compared with the model group (mechanical pain threshold) (Day 7 of dosing, 2 h and 4 h, 2 mg/kg s.c. (high dose)): significant analgesic activity
analgesic activity compared with the model group (mechanical pain threshold) (Day 7 of dosing, 6 h, 0.5 mg/kg s.c. (low dose)): still significant
analgesic activity compared with the model group (mechanical pain threshold) (Day 7 of dosing, 6 h, 1 mg/kg s.c. (AJ003; AJ003-36 medium dose)): still significant
analgesic activity compared with the model group (mechanical pain threshold) (Day 7 of dosing, 6 h, 2 mg/kg s.c. (high dose)): still significant
analgesic activity compared with the model group (mechanical pain threshold) (Day 7 of dosing, 8 h, 0.5 mg/kg s.c. (low dose)): not significant
analgesic activity compared with the model group (mechanical pain threshold) (Day 7 of dosing, 8 h, 1 mg/kg s.c. (AJ003; AJ003-36 medium dose)): remained significant
analgesic activity compared with the model group (mechanical pain threshold) (Day 7 of dosing, 8 h, 2 mg/kg s.c. (high dose)): remained significant
analgesic activity compared with the model group (mechanical pain threshold) (Day 10 of dosing, 2 h and 4 h, 0.5 mg/kg s.c. (low dose)): significant analgesic activity
analgesic activity compared with the model group (mechanical pain threshold) (Day 10 of dosing, 2 h and 4 h, 1 mg/kg s.c. (AJ003; AJ003-36 medium dose)): significant analgesic activity
analgesic activity compared with the model group (mechanical pain threshold) (Day 10 of dosing, 2 h and 4 h, 2 mg/kg s.c. (high dose)): significant analgesic activity
analgesic activity compared with the model group (mechanical pain threshold) (Day 10 of dosing, 6 h, 0.5 mg/kg s.c. (low dose)): remained significant
analgesic activity compared with the model group (mechanical pain threshold) (Day 10 of dosing, 6 h, 1 mg/kg s.c. (AJ003; AJ003-36 medium dose)): remained significant
analgesic activity compared with the model group (mechanical pain threshold) (Day 10 of dosing, 6 h, 2 mg/kg s.c. (high dose)): remained significant
analgesic activity compared with the model group (mechanical pain threshold) (Day 10 of dosing, 8 h, 0.5 mg/kg s.c. (low dose)): not significant
analgesic activity compared with the model group (mechanical pain threshold) (Day 10 of dosing, 8 h, 1 mg/kg s.c. (AJ003; AJ003-36 medium dose)): remained significant
analgesic activity compared with the model group (mechanical pain threshold) (Day 10 of dosing, 8 h, 2 mg/kg s.c. (high dose)): remained significant
analgesic activity compared with the model group (mechanical pain threshold) (Day 14 of dosing, 2 h and 4 h, 0.5 mg/kg s.c. (low dose)): significant analgesic activity
analgesic activity compared with the model group (mechanical pain threshold) (Day 14 of dosing, 2 h and 4 h, 1 mg/kg s.c. (AJ003; AJ003-36 medium dose)): significant analgesic activity
analgesic activity compared with the model group (mechanical pain threshold) (Day 14 of dosing, 2 h and 4 h, 2 mg/kg s.c. (high dose)): significant analgesic activity
analgesic activity compared with the model group (mechanical pain threshold) (Day 14 of dosing, 6 h, 0.5 mg/kg s.c. (low dose)): remained significant
analgesic activity compared with the model group (mechanical pain threshold) (Day 14 of dosing, 6 h, 1 mg/kg s.c. (AJ003; AJ003-36 medium dose)): remained significant
analgesic activity compared with the model group (mechanical pain threshold) (Day 14 of dosing, 6 h, 2 mg/kg s.c. (high dose)): remained significant
analgesic activity compared with the model group (mechanical pain threshold) (Day 14 of dosing, 8 h, 0.5 mg/kg s.c. (low dose)): not significant
analgesic activity compared with the model group (mechanical pain threshold) (Day 14 of dosing, 8 h, 1 mg/kg s.c. (AJ003; AJ003-36 medium dose)): remained significant
analgesic activity compared with the model group (mechanical pain threshold) (Day 14 of dosing, 8 h, 2 mg/kg s.c. (high dose)): remained significant
